From patent US10385103B2, “Cell-permeable (ICP)-SOCS3 recombinant protein and uses thereof” (CELLIVERY THERAPEUTICS, INC., priority 2014, dated 2019)

How the values were obtained:
RAW 264.7 cells = test: Quantitative cell-permeability of FITC-labeled aMTD- or rPeptide-fused CRA recombinant proteins (flow cytometry); assay type: cell-based; details: RAW 264.7 cells, 10 μM FITC-labeled recombinant protein, 1 hour
Outline: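 Uptake of fluorescently labeled, peptide-fused cargo proteins was quantified by flow cytometry (Guava, Millipore) and analyzed in FlowJo software. RAW 264.7 cells received 10 μM FITC-labeled protein for 1 hour at 37° C., were rinsed three times with cold PBS, and were trypsinized with 0.25% tripsin/EDTA for 20 minutes at 37° C. to remove bound protein before measurement. Permeability was expressed relative to reference proteins.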

NIH3T3 cells = test: Intracellular delivery and localization of aMTD-/rPeptide-fused CRA recombinant proteins (confocal laser scanning microscopy); assay type: cell-based, mouse; details: 10 μM FITC-labeled protein, 1 hour, 37
Protocol: NIH3T3 cells were exposed to 10 μM of FITC-labeled protein for 1 hour at 37, and nuclei were counterstained with DAPI. Then, cells were examined by confocal laser scanning microscopy (FIG. 7). […] The intracellular localization of the fluorescent signal was determined by confocal laser scanning microscopy (LSM700, Zeiss, Germany; FIGS. 7 and 8).

[1] = tested on: HCCs (Hep3B, HepG2, Huh7 and SK-HEP-1); test: Inhibition of cell cycle progression (PI staining, flow cytometry); assay type: cell-based, human; details: reference drugs
Protocol: To further determine the effect of iCP-SOCS3 on the tumorigenicity of hepatocellular carcinoma cells, we subsequently investigated whether iCP-SOCS3 regulates cell cycle progression in HCCs (Hep3B, HepG2, Huh7 and SK-HEP-1).
HCCs and normal cells were treated with 10 uM protein (Non-CP-SOCS3 (HS3B) and iCP-SOSC3 (HM165S3B)) for 8 hrs. After the treatment, cells were washed twice with cold PBS and re-suspended in 1 ml cold PBS, fixed in cold 70% ethanol, washed with cold PBS twice and re-suspended in PI master mix (PI 10 ug/ml (SIGMA, USA), 50 ug/ml RNase A (Invitrogen, USA) in staining buffer) at a final cell density of 2×10^5 cell/ml. The cell mixtures were incubated 30 min in the dark at 4° C. Flow cytometric analysis was immediately performed using a guava easyCyte™ 8 Instrument (Merck Millipore, Darmstadt, Germany).

[2] = read-out: IC50 (stated for reference drug); cited from earlier work
Huh7 cells = test: Induction of apoptosis, TUNEL assay; assay type: cell-based, human; details: 10 μM, 24 hr, 2% fetal bovine serum
Protocol: Apoptotic cells were analyzed using terminal dUTP nick-end labeling (TUNEL) assay with In Situ Cell Death Detection kit TMR red (Roche, 4056 Basel, Switzerland). Cells were treated for 24 hr with 10 μM HS3B or HM165S3B proteins with 2% fetal bovine serum and apoptotic cells were visualized by TUNEL staining. Treated cells were washed with cold PBS two times, fixed in 4% paraformaldehyde (PFA, Junsei, Tokyo, Japan) for 1 hr at room temperature, and incubated in 0.1% Triton X-100 for 2 min on the ice. Cells were washed with cold PBS twice, and treated TUNEL reaction mixture for 1 hr at 37° C. in dark, washed cold PBS three times and observed by fluorescence microscopy (Nikon, Tokyo, Japan). Cisplatin® (IC50: 30 μM) was used for reference drug.

HepG2 cells = test: Induction of apoptosis, Annexin V/7-AAD staining; assay type: cell-based, human; details: example 20-1
Protocol: AGS cells (gastric carcinoma cell line) (American Type Culture Collection; ATCC) were seeded in a 12-well plate at a density of 1×10^5 cells/well, and then treated with 10 uM of aMTD/SD-fused SOCS3 for 14 hours. Cancer cell death was analyzed by Annexin V analysis. Annexin V/7-Aminoactinomycin D (7-AAD) staining was performed using flow cytometry according to the manufacturer's guidelines (BD Pharmingen, San Diego, Calif., USA). Briefly, cells were washed three times with ice-cold PBS. The cells were then resuspended in 100 μl of binding buffer and incubated with 1 μl of 7-AAD and 1 μl of annexin V-PE for 30 min in the dark at 37° C. Flow cytometric analysis was immediately performed using a guava easyCyte™ 8 Instrument (Merck Millipore, Darmstadt, Germany).
Annexin V/7-Aminoactinomycin D (7-AAD) staining was performed using flow cytometry according to the manufacturer's guidelines (BD Pharmingen, San Diego, Calif., USA). Briefly, 1×10^6 cells were washed three times with ice-cold PBS. The cells were then resuspended in 100 μl of binding buffer and incubated with 1 μl of 7-AAD and 1 μl of […] for 30 min in the dark at 4° C. Flow cytometric analysis was immediately performed using a guava easyCyte™ 8 Instrument (Merck Millipore, Darmstadt, Germany). In this regard, Cisplatin® (IC50: 30 μM) was used as a reference drug.
The effect of inducing apoptosis of Chang liver cells was measured in the same manner as in Example 11-2, except that as target cell lines, normal Chang liver cells and hepatocellular carcinoma cell lines, Hep3B, HepG2, Huh7, and SK-HEP-1 were used, and as a reference drug, 5-FU® (IC50: 40 μM) was used.

HepG2 tumor = test: Anti-tumor activity in cell-derived xenograft model; details: iCP-SOCS3 IV 50 mg/kg every day; Cisplatin IP 4 mg/kg twice a week; 3 weeks
Protocol: Female Balb/c^nu/nu mice (5-week-old, Doo-Yeol Biotech Co. Ltd. Korea) were subcutaneously implanted with Hep3B2.1-7 tumor block (1 mm^3) into the left back side of the mouse. […] Tumor size was monitored by measuring the longest (length) and shortest dimensions (width) once a day with a dial caliper, and tumor volume was calculated as width2×length×0.5.
Then, tumor volumes were examined. […] Then, tumor volumes were examined.

Compound	Relative Ratio to aMTD AVE (RAW 264.7 cells) [fold]	intracellular delivery and localization (internalized fluorescence signal) (NIH3T3 cells)	amount of subG1 [1]	IC50 [2] [µM]	induction of apoptosis (TUNEL), Huh7 (Huh7 cells)	induction of apoptosis (Annexin V), HepG2, dose dependence (HepG2 cells)	body weight / adverse effects (HepG2 tumor)
YYNQSTCGGQCY [rP38, reference compound]	0.3±0.04	did not show internalized fluorescence signal					
N.N.[Cl][Pt][Cl] [Cisplatin, reference compound]			hardly increased the amount of subG1	30	hardly induced apoptosis	hardly induced apoptosis	remarkable weight loss
